≈ marks a conversion by molar mass, not a printed value.
Tests used:
HL-60 = assay: Growth inhibition of human HL60 cells at 50 uM after 24 to 72 hrs by trypan blue staining based assay relative to control; format: functional; settings: read-out: GI
HeLa = assay: Growth inhibition of human HeLa cells at 50 uM after 24 to 72 hrs by trypan blue staining based assay relative to control; format: functional; settings: read-out: GI
B16 = assay: Growth inhibition of mouse B16 cells at 50 uM after 24 to 72 hrs by trypan blue staining based assay relative to control; format: functional; settings: read-out: GI
[1] = Growth inhibition of mouse NIH/3T3 cells at 50 uM after 24 to 72 hrs by trypan blue staining based assay relative to control; format: cell-based, NIH3T3; settings: read-out: GI
Staphylococcus aureus [2] = assay: Antimicrobial activity against methicillin-resistant Staphylococcus aureus incubated overnight by broth microdilution method; format: functional
Klebsiella pneumoniae = assay: Antimicrobial activity against Klebsiella pneumoniae incubated overnight by broth microdilution method; format: functional
[3] = system: Mycobacterium tuberculosis; assay: Antimicrobial activity against Mycobacterium tuberculosis H37Rv incubated for 10 days by microbroth dilution method; format: functional; settings: 240 h
Mycobacterium avium = assay: Antimicrobial activity against Mycobacterium avium incubated for 10 days by microbroth dilution method; format: functional; settings: 240 h
Mycolicibacter terrae = assay: Antimicrobial activity against Mycobacterium terrae incubated for 10 days by microbroth dilution method; format: functional; settings: 240 h
Escherichia coli [4] = assay: Antimicrobial activity against Escherichia coli NCTC 11954 incubated for 24 hrs by microbroth dilution method; format: functional; settings: NCTC 11954, 24 h
Escherichia coli [5] = assay: Antimicrobial activity against Escherichia coli ATCC 8739 incubated for 24 hrs by microbroth dilution method; format: functional; settings: ATCC 8739, 24 h
Escherichia coli [6] = assay: Antimicrobial activity against Escherichia coli O157:H7 incubated for 24 hrs by microbroth dilution method; format: functional; settings: O157:H7, 24 h
Escherichia coli [7] = assay: Antimicrobial activity against nalidixic acid-resistant Escherichia coli clinical isolate incubated for 24 hrs by microbroth dilution method; format: functional
Salmonella enterica = assay: Antimicrobial activity against Salmonella enterica ATCC 13312 incubated for 24 hrs by microbroth dilution method; format: functional; settings: ATCC 13312, 24 h
Pseudomonas aeruginosa = assay: Antimicrobial activity against Pseudomonas aeruginosa ATCC 9627 incubated for 24 hrs by microbroth dilution method; format: functional; settings: ATCC 9627, 24 h
Staphylococcus aureus [8] = assay: Antimicrobial activity against Staphylococcus aureus ATCC 33591 incubated for 24 hrs by microbroth dilution method; format: functional; settings: ATCC 33591, 24 h
Staphylococcus aureus [9] = assay: Antimicrobial activity against Staphylococcus aureus ATCC 9253 incubated for 24 hrs by microbroth dilution method; format: functional; settings: ATCC 9253, 24 h
Listeria monocytogenes = assay: Antimicrobial activity against Listeria monocytogenes ATCC 19115 incubated for 24 hrs by microbroth dilution method; format: functional; settings: ATCC 19115, 24 h
Candida albicans = assay: Antimicrobial activity against Candida albicans ATCC 10231 after 24 hrs by microbroth dilution method; format: functional; settings: ATCC 10231, 24 h
Aspergillus flavus = assay: Antimicrobial activity against Aspergillus flavus ATCC 9643 after 48 hrs by microbroth dilution method; format: functional; settings: ATCC 9643, 48 h
Stachybotrys chartarum = assay: Antimicrobial activity against Stachybotrys chartarum IBT 7711 after 48 hrs by microbroth dilution method; format: functional; settings: IBT 7711, 48 h
Penicillium chrysogenum = assay: Antimicrobial activity against Penicillium chrysogenum ATCC 10106 after 48 hrs by microbroth dilution method; format: functional; settings: ATCC 10106, 48 h

Work on O=C(CSc1nnc(CN2CCN(c3cc4c(cc3F)c(=O)c(C(=O)O)cn4C3CC3)CC2)o1)c1ccc(Cl)cc1 yielded an inhibition of growth at 50 µM (HL-60) of 100%, an inhibition of growth at 50 µM (HeLa) of 100% and an inhibition of growth at 50 µM (B16) of 100%. For the same molecule, the inhibition at 50 µM [1] was 100%.

With C[C@H]1Cn2cc(C(=O)NCCC(=O)NCCC[C@@H]3NC(=O)[C@H](CCCNC(=N)N)NC(=O)[C@H](CCCNC(=N)N)NC(=O)[C@H](CCCNC(=N)N)NC(=O)[C@@H](Cc4c[nH]c5ccccc45)NC(=O)[C@H](Cc4c[nH]c5ccccc45)NC(=O)[C@H](Cc4c[nH]c5ccccc45)NC(=O)[C@H](Cc4c[nH]c5ccccc45)NC(=O)[C@H](CCCNC(=N)N)NC3=O)c(=O)c3cc(F)c(N4CCN(C)CC4)c(c32)O1 the MIC (Staphylococcus aureus [2]) was 32 µg/mL (≈ 16.9 µM) and the MIC (Klebsiella pneumoniae) was greater than 128 µg/mL.

For CCOc1cccc2cc(-c3cc4c(cc3F)c(=O)c(C(=O)O)cn4CC)c(=O)oc12, the MIC [3] was 1.5 µg/mL (≈ 3.54 µM), the MIC (Mycobacterium avium) was 1.5 µg/mL (≈ 3.54 µM) and the MIC (Mycolicibacter terrae) was 0.7 µg/mL (≈ 1.65 µM).

Work on C[C@H]1Cn2cc(C(=O)NCCC(=O)NCCC[C@@H]3NC(=O)[C@H](CCCNC(=N)N)NC(=O)[C@H](CCCNC(=N)N)NC(=O)[C@H](CCCNC(=N)N)NC(=O)[C@@H](Cc4c[nH]c5ccccc45)NC(=O)[C@H](Cc4c[nH]c5ccccc45)NC(=O)[C@H](Cc4c[nH]c5ccccc45)NC(=O)[C@H](Cc4c[nH]c5ccccc45)NC(=O)[C@H](CCCNC(=N)N)NC3=O)c(=O)c3cc(F)c(F)c(c32)O1 yielded an MIC (Staphylococcus aureus [2]) of 8 µg/mL (≈ 4.4 µM) and an MIC (Klebsiella pneumoniae) of 32 µg/mL (≈ 17.6 µM).

For COc1c(N2CCN(C)CC2)c(F)cc2c(=O)c(C(=O)N[C@H]3[C@H](O)[C@@H](O)[C@H](CO)[C@H](O)[C@@H]3O)cn(C3CC3)c12, the MIC (Escherichia coli [4]) was 159 µM (≈ 87.5 µg/mL), the MIC (Escherichia coli [5]) was 318 µM (≈ 175 µg/mL) and the MIC (Escherichia coli [6]) was 39.7 µM (≈ 21.9 µg/mL). It also gave an MIC (Escherichia coli [7]) of 636 µM (≈ 350 µg/mL), an MIC (Salmonella enterica) of 159 µM (≈ 87.5 µg/mL) and an MIC (Pseudomonas aeruginosa) of 19.9 µM (≈ 11 µg/mL). For the same molecule, the MIC (Staphylococcus aureus [8]) was 159 µM (≈ 87.5 µg/mL), the MIC (Staphylococcus aureus [9]) was 159 µM (≈ 87.5 µg/mL) and the MIC (Listeria monocytogenes) was 636 µM (≈ 350 µg/mL). For the same molecule, the MIC (Candida albicans) was less than 9.9 µM, the MIC (Aspergillus flavus) was 636 µM (≈ 350 µg/mL) and the MIC (Stachybotrys chartarum) was 636 µM (≈ 350 µg/mL).

COC[C@@H]1[C@H](OC(C)=O)[C@H](OC(C)=O)[C@@H](NC(=O)c2cn(C3CC3)c3c(OC)c(N4CCN(C)CC4)c(F)cc3c2=O)[C@H](OC(C)=O)[C@H]1OC(C)=O gave an MIC (Penicillium chrysogenum) of 445 µM (≈ 326 µg/mL), an MIC (Escherichia coli [4]) of 111 µM (≈ 81.6 µg/mL) and an MIC (Escherichia coli [5]) of 445 µM (≈ 326 µg/mL). For the same molecule, the MIC (Escherichia coli [6]) was 55.7 µM (≈ 40.8 µg/mL), the MIC (Escherichia coli [7]) was 445 µM (≈ 326 µg/mL) and the MIC (Salmonella enterica) was 890 µM (≈ 652 µg/mL). It also gave an MIC (Pseudomonas aeruginosa) of 111 µM (≈ 81.6 µg/mL), an MIC (Staphylococcus aureus [8]) of 111 µM (≈ 81.6 µg/mL) and an MIC (Staphylococcus aureus [9]) of 55.7 µM (≈ 40.8 µg/mL). For the same molecule, the MIC (Listeria monocytogenes) was 111 µM (≈ 81.6 µg/mL), the MIC (Candida albicans) was 223 µM (≈ 163 µg/mL) and the MIC (Aspergillus flavus) was 55.7 µM (≈ 40.8 µg/mL). It also gave an MIC (Stachybotrys chartarum) of 445 µM (≈ 326 µg/mL).

For C[C@H]1Cn2cc(C(=O)NCCC(=O)NCCCCC[C@@H](N)C(=O)N[C@@H](CCCNC(=N)N)C(=O)N[C@@H](CCCNC(=N)N)C(=O)N[C@@H](CCCNC(=N)N)C(=O)N[C@@H](CCCNC(=N)N)C(=O)N[C@@H](Cc3c[nH]c4ccccc34)C(=O)N[C@@H](CCCNC(=N)N)C(=O)N[C@@H](Cc3c[nH]c4ccccc34)C(=O)N[C@@H](Cc3c[nH]c4ccccc34)C(=O)O)c(=O)c3cc(F)c(N4CCN(C)CC4)c(c32)O1, the MIC (Staphylococcus aureus [2]) was 64 µg/mL (≈ 33.4 µM) and the MIC (Klebsiella pneumoniae) was greater than 128 µg/mL.

Source: ChEMBL document CHEMBL4602605, “Fluoroquinolones structural and medicinal developments (2013-2018): Where are we now?” (Bioorg Med Chem, 2019)
